From US12564640B2, “Protein-antiviral compound conjugates” (priority 2020, dated 2026)

Assays:
[1] = test system: influenza A/H1N1/PR8 virus; assay: microbe, parasite or virus in culture; assay type: cell-based, H1N1 A/Puerto Rico/08/1934 influenza virus; conditions: for Fold increase over parental antibody: relative to mAb11729 of the same run
[2] = test system: influenza A/H3N2/HK68x31 virus; assay: Antiviral efficacy assay, HK68x31; assay type: cell-based
[3] = test system: influenza A/H1N1/Cal09 virus; assay: Antiviral efficacy assay, Cal09; assay type: cell-based; conditions: relative to mAb11729

Row | Molecule | IC50 ([1]; MDCK London cells, Runs 1-4) [nM] | Fold increase over parental antibody [1] [fold] | IC50 [2] [nM] | Fold increase over parental antibody [3] [fold]
1 | O=C(O)[C@H]1C2CCC(CC2)[C@@H]1Nc1nc(-c2c[nH]c3ncc(F)cc23)ncc1F [VX-787, reference compound] | 9.46 | 3.32 | 7.05 | –
2 | mAb11729: anti-hemagglutinin (anti-HA) monoclonal antibody, HCVR SEQ ID NO: 18, LCVR SEQ ID NO: 26 (antibody, V domains shown) VH: QVQLVQSGAEVKKSGSSVKVSCKASGGTFSSYAISWVRQAPGQGLEWMGGIIPIFGTPSYAQKFQDRVTITTDESTSTVYMELSSLRSEDTAVYYCARQQPVYQYNMDVWGQGTTVTVSS VL: DIQMTQSPSSLSASVGDRVTITCRASQGIRNNLGWYQQKPLKAPKRLIYAASSLQSGVPSRFSGSGSGTEFTLTISSLQPEDFATYYCLQYNNYPWTFGQGTKVEIK | – | 1.00 | – | 1.00
